Experimental data published in article PMC3441040 (ACS Medicinal Chemistry Letters, 2012).

What was measured:
purified murine COX-2 = molecular target: T1, purified murine COX-2 (Mus musculus, UniProt Q05769); experiment: Inhibition of mCOX-2 dependent oxygenation of 2-AG and AA in vitro; format: biochemical; details: read-out: 2-AG IC50 (dash)
T1 sequence (Q05769 18-604): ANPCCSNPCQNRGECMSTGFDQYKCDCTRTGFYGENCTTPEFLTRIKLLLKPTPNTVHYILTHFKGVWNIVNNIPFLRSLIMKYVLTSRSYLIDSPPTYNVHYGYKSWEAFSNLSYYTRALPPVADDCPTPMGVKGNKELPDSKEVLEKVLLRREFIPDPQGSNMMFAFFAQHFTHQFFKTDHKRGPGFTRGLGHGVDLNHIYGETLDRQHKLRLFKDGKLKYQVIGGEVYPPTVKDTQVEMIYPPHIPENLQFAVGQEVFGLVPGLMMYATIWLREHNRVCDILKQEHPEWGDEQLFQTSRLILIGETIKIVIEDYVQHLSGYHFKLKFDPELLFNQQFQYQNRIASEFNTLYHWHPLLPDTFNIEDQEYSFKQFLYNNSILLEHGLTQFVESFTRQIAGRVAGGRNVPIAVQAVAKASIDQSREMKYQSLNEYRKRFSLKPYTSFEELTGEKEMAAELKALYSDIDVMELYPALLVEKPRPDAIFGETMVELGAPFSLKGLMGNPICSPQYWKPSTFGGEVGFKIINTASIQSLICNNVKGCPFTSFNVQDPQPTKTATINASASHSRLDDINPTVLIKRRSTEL

[1] = system: COX-2 dependent oxygenation in RAW 264.7 macrophages; experiment: Oxygenation of 2-AG and AA in LPS/interferon γ stimulated RAW 264.7 macrophages; format: cell-based; details: Mus musculus, RAW264.7, read-out: AA inhibition in RAW 264.7 cells

Row | SMILES | inhibition at 10 µM (purified murine COX-2) [%] | inhibition at 50 µM [1] [%]
1 | CC(C)Cc1ccc(C2(C(=O)O)CC2)cc1 [5c] | < 50 | 
2 | CC(C)Cc1ccc(C(C)(C)C(=O)O)cc1 [4c] | < 50 | 
3 | C[C@@H](C(=O)O)c1ccc(-c2ccccc2)c(F)c1 [7a, (R)-flurbiprofen] |  | 0
4 | COc1ccc2cc(C(C)(C)C(=O)O)ccc2c1 [4b] | < 50 | 
